Measured values published in patent US20160244436A1, “NOVEL FUNCTIONALIZED 5-(PHENOXYMETHYL)-1,3-DIOXANE ANALOGS EXHIBITING CYTOCHROME P450 INHIBITION AND THEIR METHOD OF USE” (CORTENDO AB (PUBL), priority 2013, published 2016).

What was measured:
[1] = target: Cyp3A4 (Homo sapiens, UniProt P08684); assay: Cyp3A4 off-target counter screen; assay type: in vitro ADME; conditions: off-target enzyme
[2] = target: T1, recombinant CYP-17 (Homo sapiens, UniProt P05093); assay: Cyp17 assay: AD293 cells over-expressing recombinant CYP-17, 3H-acetic acid release from [21-3H] 17α-hydroxyl-Pregnenolone; assay type: cell-based
T1 construct: expressed in transfected cells; host or cells: AD293
T1 sequence (P05093 1-508): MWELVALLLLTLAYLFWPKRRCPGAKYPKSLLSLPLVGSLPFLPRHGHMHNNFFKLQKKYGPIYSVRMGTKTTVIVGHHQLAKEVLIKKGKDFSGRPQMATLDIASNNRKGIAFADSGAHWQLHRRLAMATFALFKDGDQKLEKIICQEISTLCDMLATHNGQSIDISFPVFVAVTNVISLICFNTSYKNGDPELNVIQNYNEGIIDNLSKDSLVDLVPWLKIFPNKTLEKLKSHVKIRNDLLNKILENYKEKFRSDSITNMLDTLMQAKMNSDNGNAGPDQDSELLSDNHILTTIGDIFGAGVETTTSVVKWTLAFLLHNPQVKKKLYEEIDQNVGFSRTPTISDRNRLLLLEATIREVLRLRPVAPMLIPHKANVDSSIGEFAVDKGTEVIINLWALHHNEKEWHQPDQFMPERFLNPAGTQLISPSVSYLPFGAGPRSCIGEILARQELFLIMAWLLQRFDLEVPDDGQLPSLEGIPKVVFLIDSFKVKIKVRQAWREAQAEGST
Experimental: Cyp17 assay protocol: AD293 cells that stably over-express recombinant CYP-17 were seeded in 96 well plates coated with poly D-lysine (15,000 cell per well) and incubated at 37° C. for 24 hours in Dulbecco's Modified Eagle Medium (DMEM) with Fetal Bovine Serum (FBS) that is stripped of hormones by charcoal treatment. The media is then removed, the cells are washed once with Phosphate buffer saline solution, and 50 μL Dulbecco's Modified Eagle Medium (DMEM) with Fetal Bovine Serum (FBS) that is stripped of hormones by charcoal treatment is added. Compounds of the disclosure are then added to the wells in eight concentration spanning 10 μM to 4.5 nM, and the plates are incubated for an additional 60 minutes at 37° C. [21-^3H] 17α-hydroxyl-Pregnenolone is then added (50 nCi per well, 31.25 nM) and the plates are incubated for an additional 4 hours at 37° C. The media is then collected, 200 μL, of chloroform is added, and the mixture is shaken for 1 hour. The aqueous layer is then separated and analyzed for the presence of ^3H-acetic acid using a Perkin Elmer Topcount NXT to determine IC50s of the compounds of the disclosure.

Sequence of Cyp3A4 (P08684 whole entry): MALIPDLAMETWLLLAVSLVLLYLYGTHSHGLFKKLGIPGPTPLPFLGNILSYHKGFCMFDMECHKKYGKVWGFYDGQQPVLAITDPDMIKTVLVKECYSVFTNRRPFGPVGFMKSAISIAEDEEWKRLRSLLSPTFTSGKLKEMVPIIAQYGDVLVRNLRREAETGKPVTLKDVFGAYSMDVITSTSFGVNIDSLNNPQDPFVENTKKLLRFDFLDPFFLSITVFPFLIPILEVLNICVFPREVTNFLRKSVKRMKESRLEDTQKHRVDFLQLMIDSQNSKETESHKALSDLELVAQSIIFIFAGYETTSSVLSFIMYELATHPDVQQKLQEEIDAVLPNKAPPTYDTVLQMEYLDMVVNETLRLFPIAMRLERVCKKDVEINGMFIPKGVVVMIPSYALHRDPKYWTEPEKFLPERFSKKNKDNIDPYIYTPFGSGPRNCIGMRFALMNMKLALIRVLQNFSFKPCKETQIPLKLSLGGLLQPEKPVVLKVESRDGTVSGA

IC50 [1]: 109 nM | IC50 [2]: 8 nM
SMILES: CC(=O)N1CCN(c2ccc(CO[C@H]3CO[C@](Cn4ccnc4)(c4ccc(Cl)cc4Cl)OC3)cc2)CC1 [drawing 112]
